Assay results as given in paper PMC8672774, “Discovery of cell active macrocyclic peptides with on-target inhibition of KRAS signaling” (Chemical Science, 2021).

Assays:
[1] = tested on: MAPK and PI3K signaling in SK-MEL-28 cells (BRAF^V600E); test: Western blot of MAPK and PI3K signaling in SK-MEL-28 cells; format: cell-based
Description: (§1) Western Blotting: Cells were seeded in 24-well poly-D-lysine coated plates and treated with the indicated peptides the next day. Following incubation, 100 μl of 1X Bolt™ LDS sample buffer supplemented with NuPAGE® sample reducing agent was added. Wells were scrapped using wide orifice
bath sonicator (QSonica).
(§2) onto nitrocellulose membranes using the Trans-Blot® Turbo™ semi-dry sy s te m ( Bio -rad), and blocked for 1 hour at room temperature with tris-buffered saline (TBS) Odyssey blocking buffer (Li- Cor). Blots were probed with the appropriate primary antibodies overnight at 4°C in Odyssey blocking buffer supplemented with 0.1% Tween-20, followed by the secondary antibodies IRDye® 680RD donkey anti-mouse IgG or IRDye® 800CW donkey anti-rabbit IgG (Li- Cor) for 1 hour at room temperature.
(§3) Fluorescent signals were imaged and quantified using Odyssey® CLx. Primary antibodies used were:

[2] = tested on: EGF receptor activation; test: Western blot of EGF receptor activation in AsPC-1 cells; format: cell-based
[3] = tested on: rat mast cells; test: Ex vivo rat mast cell degranulation and histamine release assay
Description: The reported rat mast cell degranulation (rMCD) value in Table 4 is a threshold for the lowest concentration at which a two-fold change in histamine release was observed.
In Vitro Rat M ast Cell Degranulation and H istamine Release Ass ess m ent: Peritoneal lavage was isolated
from Wister- Han rats as described in literature. In brief, animals were anesthetized with xylene followed
by an injection of about 10 mL of Tyrode buffer (12 mM NaHCO3, 127 mM NaCl, 5 mM KCl, 0.5 mM
NaH2PO4, 1 mM MgCl2, 5 mM Glucose and 10 mM HEPES, pH 7.4) into the peritoneal cavity. After a
gentle abdomen massage, peritoneal lavage was collected and centrifuged at 350 x g for 5 minutes. Cell
pellets were resuspended in Tyrode buffer with 10% heat inactivated rat serum to reach a final
Freshly isolated rat peritoneal cells were aliquoted to a 96 well tissue-
culture plate (100 µL per well).
peptides for 30 minutes at 37°C. After incubation, the plate was centrifuged at 350 x g for 2 minutes at
room temperature. Supernatant were collected and histamine concentration was measured by ELISA
(Neogen, Lansing, MI) following vendor’s instructions. Amount of histamine in the supernatant was
presented as ng/mL. A detection of histamine release was defined as the histamine concentration in
from 10 vehicle-control treated samples from the same animal). The lowest concentration that a

[4] = tested on: pERK and pAKT in AsPC-1 cells; test: Western blot of KRAS signaling (pERK, pAKT) in AsPC-1 cells; format: cell-based; settings: 1 hour and 16 hour time-points
Description: as §1
bath sonicator (QSonica).
as §2, §3
(D14E12) (Cell Signaling Technology, #8 24 2), phospho-IκBα (Ser32) (Cell Signaling Technology, #2 85 9) , IκBα (L35A5) (Cell Signaling Technology, #4 81 4) , NanoLuc (Promega, N7000) and pan-RAS (Sigma,
mM PMSF and Co mplete™ EDTA-free protease inhibitor cocktail (Roche) for 30 min with intermittent

[5] = tested on: TNFα-stimulated NFκB signaling; test: Western blot of TNFα-stimulated NFκB signaling in AsPC-1 cells; format: cell-based
[6] = tested on: MAPK and PI3K signaling in A375 cells (BRAF^V600E); test: Western blot of MAPK and PI3K signaling in A375 cells; format: cell-based
Description: as §1
bath sonicator (QSonica).
as §2, §3

[7] = tested on: AsPC-1, SK-CO-1, NCI-H358 and NCI-H2122 cells; test: CellTiter-Glo 2.0 cell viability assay, KRAS mutant lines; format: cell-based; settings: AsPC-1, SK-CO-1, NCI-H358, NCI-H2122; 120 h
Description: Prism software (GraphPad, San Diego, CA).
according to the manufacturer’s protoco l.
time of 0.15 second per well.
AMG510 was prepared internally from
Cells were cultured and seeded

Structure (SMILES) | inhibition of MAPK signaling in SK-MEL-28 [1] | effect on upstream EGF receptor activation [2] | activation of mast cell degranulation (histamine release), in words ([3]; ex vivo, rat mast cells) | rMCD histamine release threshold ([3]; lowest concentration at which histamine release was observed, rat peritoneal mast cells, 30 min) [µM] | inhibition of KRAS signaling (pERK, pAKT) by Western blot [4] | effect on TNFα-stimulated NFκB signaling [5] | inhibition of MAPK signaling in A375 [6] | inhibition of cell proliferation in KRAS mutant lines [7]
CC[C@H](C)[C@@H]1NC(=O)[C@H](Cc2ccc(O)cc2)NC(=O)[C@H](CC(C)C)NC(=O)[C@@H]2CCCN2C(=O)[C@H](NC(=O)[C@@H](CCCNC(=N)N)NC(=O)[C@@H](CCCNC(=N)N)NC(=O)[C@@H](CCCNC(=N)N)NC(=O)[C@@H](CCCNC(=N)N)NC(=O)[C@H](CCCCN=[N+]=[N-])NC(C)=O)CSCSC[C@@H](C(=O)N[C@H](CCCNC(=N)N)C(=O)N[C@H](CCCNC(=N)N)C(=O)N[C@H](CCCNC(=N)N)C(=O)N[C@H](CCCNC(=N)N)C(N)=O)NC(=O)[C@H](C(C)C)NC(=O)[C@@H]2CCCN2C(=O)[C@H](CC(=O)O)NC(=O)[C@H](Cc2ccc(O)cc2)NC(=O)[C@H](CO)NC1=O [MP-4090] | inactive | no effect | highly potent activators of MCD | ≥0.14 | display cell-based inhibition | no effect | inactive | 
CC[C@@H](C)[C@H]1NC(=O)[C@@H](Cc2ccc(O)cc2)NC(=O)[C@@H](CC(C)C)NC(=O)[C@H]2CCCN2C(=O)[C@H](NC(=O)[C@@H](CCCNC(=N)N)NC(=O)[C@@H](CCCNC(=N)N)NC(=O)[C@@H](CCCNC(=N)N)NC(=O)[C@@H](CCCNC(=N)N)NC(C)=O)CSCSC[C@H](C(=O)N[C@H](CCCNC(=N)N)C(=O)N[C@H](CCCNC(=N)N)C(=O)N[C@H](CCCNC(=N)N)C(=O)N[C@H](CCCNC(=N)N)C(N)=O)NC(=O)[C@@H](C(C)C)NC(=O)[C@H]2CCCN2C(=O)[C@@H](CC(=O)O)NC(=O)[C@@H](Cc2ccc(O)cc2)NC(=O)[C@@H](CO)NC1=O [MP-4956, Ac-rrrr-cyclo(c(methylene)plyisydpvc)-rrrr-NH2] |  |  |  |  | showed no activity |  |  | minimal inhibitory effects
